Reference: US20210007351A1 (priority 2018, published 2021)

Tested on: Phytophthora infestans Genotype 13_A2
Format: cell-based
Conditions: 0.5%, 1% and 2% (all concentrations) in CMA with 0.5% DMSO; 7 days and 14 days post inoculation; 23 °C

Row | Compound | average mycelial extension into amended CMA agar (growth)
1 | C=CCc1ccc(O)c(OC)c1 [Eugenol, eugenol] | heavily reduced or absent altogether
2 | CC1(C)C2CCC1(C)C(O)C2O (racemic) [(+/−)-exo,exo-2,3-Camphanediol] | heavily reduced or absent altogether
